This is an account of results in US6562837B1, “Use of tetrahydroisoquinoline compounds for the treatment of septicemia” (Korea Institute of Science & Technology, priority 1998, dated 2003).

The subject of one test is iNOS mRNA. Briefly: Suppression of LPS-induced iNOS mRNA expression in rat isolated aorta (Northern blot). Format: cell-based. Conditions: LPS 300 ng/ml, 8 hours; compound 10, 30 and 100 μM; FIG. 1. Here is the method:
Rats were anesthetized with pentobarbital sodium (50 mg/kg) and the aorta was isolated, followed by removing endothelium from the aorta. After being incubated at 37° C. for 8 hours in a Krebs solution containing 300 ng/ml of LPS, the aorta was subjected to total RNA extraction with the aid of a trizol solution (GibcoBRL). After quantification by use of a UV spectrophotometer (Shimadzu, UV-1201), the total RNA obtained was electrophoresed on a formamide-formaldehyde agarose gel and transferred to a nylon membrane. Thereafter, the total RNA on the nylon membrane was hybridized with cDNA probes for iNOS to determine the expression level of iNOS mRNA, in which the cDNA of iNOS was labeled with ^32P-dCTP by a random-primer method. For quantification, an x-ray film was exposed to the radioactive irradiation from the nylon membrane and developed to compare the dot sizes of desired objects with those of GAPDH (glyceraldehyde-3-phosphate dehydrogenase).
When aortic preparations were incubated, in vitro, the blood vessel was cultured, in vitro, in the presence of LPS, iNOS mRNA was transcribed in a large amount. […]

For test [1], the system named is iNOS mRNA in macrophages (RAW 264.7 cells). Kind of test: Suppression of LPS- and IFN-γ-induced iNOS mRNA expression in macrophage (Northern blot). Format: cell-based. Conditions: LPS 100 ng/ml + IFN-γ 10 U/ml, 18 hours, compound 1, 10 and 100 μM, FIG. 2. Here is the method: In a DMEM medium supplemented with thermally treated 10% fetal calf serum, penicillin (100 U/ml) and streptomycin ([…]), macrophages (RAW 264.7 cells) were cultured to be confluent in a CO2 incubator. After being transferred to a serum-free DMEM medium, the cells were cultured for additional 24 hours and then, further for 18 hours in the presence of LPS (100 ng/ml) and interferon-γ (hereinafter referred to as “IFN-γ”; 10 U/ml), and/or the compound of Chemical Formula 2 (0, 1, 10, and 100:μM). Using a trizol solution, the total RNA was extracted from the cultured macrophages. After quantification in a spectrophotometer, the total RNA obtained was electrophoresed on a formamide-formaldehyde agarose gel and transferred to a nylon membrane. Thereafter, the total RNA on the nylon membrane was hybridized with cDNA probes for iNOS to determine the expression level of iNOS mRNA, in which the cDNA of iNOS was labeled with ^32P-dCTP by a random-primer method. For quantification, an x-ray film was exposed to the radioactive irradiation from the nylon membrane and developed to compare the radioactivity level of desired objects with those of GAPDH. […]

Turning to `Oc1cc2c(cc1O)C(Cc1cccc3ccccc13)NCC2` (stereo not drawn) [Compound 1, 1-α-naphthylmethyl-6,7-dihydroxy-1,2,3,4-tetrahydroisoquinoline], the “LPS-induced iNOS mRNA expression in isolated rat aorta” value with iNOS mRNA is “inhibits the LPS-induced iNOS mRNA expression in a concentration-dependent manner”.
For `Oc1cc2c(cc1O)C(Cc1ccc3ccccc3c1)NCC2` (stereo not drawn) [Compound 2, 1-β-naphthylmethyl-6,7-dihydroxy-1,2,3,4-tetrahydroisoquinoline], in test [1], the “LPS/IFN-γ-induced iNOS mRNA expression in macrophages” value is given as “inhibits the LPS/IFN-γ-induced iNOS mRNA expression in a concentration-dependent manner”.
